Test results from patent US20240409585A1, “MACROCYCLIC IMMUNOMODULATORS” (priority 2021, published 2024).
Bridge positions count the residues as written; N and C are the ends. Square brackets hold non-standard residues; d marks the D form. Peptide text beside a SMILES is read from it. * marks the point of attachment. ξ: configuration not given here. Phe(4-COOH) = N[C@@H](Cc1ccc(C(=O)O)cc1)C(=O)O; Bip = N[C@@H](Cc1ccc(-c2ccccc2)cc1)C(=O)O; Phe(3-CN) = N#Cc1cccc(C[C@H](N)C(=O)O)c1; Phe(3-OMe) = COc1cccc(C[C@H](N)C(=O)O)c1; Phe(3-F) = N[C@@H](Cc1cccc(F)c1)C(=O)O; Phe(3-Me) = Cc1cccc(C[C@H](N)C(=O)O)c1; Val(3-OH) = CC(C)(O)[C@H](N)C(=O)O; 4Pal = N[C@@H](Cc1ccncc1)C(=O)O; Cha = N[C@@H](CC1CCCCC1)C(=O)O; Cit = NC(=O)NCCC[C@H](N)C(=O)O; Ile(3ξ) = CCC(C)[C@H](N)C(=O)O; NMeOrn = CN[C@@H](CCCN)C(=O)O; Thr(3ξ) = CC(O)[C@H](N)C(=O)O; Dap(Me) = CNC[C@H](N)C(=O)O; Carboxymethyl = O=C(O)C*; NMeA = CN[C@@H](C)C(=O)O; Dab = NCC[C@H](N)C(=O)O

Target: T1, PE-labeled human PD-L1-Ig binding to Jurkat cell line over-expressing human PD-1 (Jurkat-PD-1) (Homo sapiens, UniProt Q15116)
T1 construct: expressed in transfected cells; host or cells: Jurkat
Test: Jurkat-PD-1 Cell Binding High-Content Screening Assay (CBA): Method 1
Conditions: Jurkat-hPD-1 cells, PE-labeled PD-L1-Ig 20 nM final; read-out: Jurkat HPDL1 PD1 IC50 (uM) (Method 1)

T1 sequence (Q15116 25-288): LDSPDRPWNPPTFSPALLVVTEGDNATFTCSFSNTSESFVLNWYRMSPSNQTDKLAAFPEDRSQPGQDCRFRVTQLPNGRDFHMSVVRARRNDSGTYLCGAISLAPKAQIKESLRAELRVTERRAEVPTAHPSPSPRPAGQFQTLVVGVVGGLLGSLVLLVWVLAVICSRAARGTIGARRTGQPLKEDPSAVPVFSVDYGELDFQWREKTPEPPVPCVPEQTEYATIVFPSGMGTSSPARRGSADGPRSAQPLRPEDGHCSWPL

| Compound | IC50 |
| --- | --- |
| CCC(C)[C@@H]1NC(=O)[C@H](Cc2ccc(-c3ccccc3)cc2)NC(=O)[C@H](CC(C)C)NC(=O)[C@H](Cc2c[nH]c3ccccc23)NC(=O)[C@H](CC(=O)O)NC(=O)[C@H](Cc2ccc(C(=O)O)cc2)NC(=O)[C@H](Cc2ccc(OCC(=O)O)cc2)NC(=O)CSC[C@@H](C(=O)N[C@@H](C)C(N)=O)NC(=O)[C@H](CO)NC(=O)[C@H](C(C)C)NC(=O)[C@H](CC2CCCCC2)NC(=O)[C@H](CNC)NC(=O)[C@@H](CC(C)C)NC(=O)[C@H](C)N(C)C1=O (stereo partly drawn) [Compound 2068] ({CH2CO}-Y(Carboxymethyl)[Phe(4-COOH)]DWL[Bip][Ile(3ξ)][NMeA][dL][Dap(Me)][Cha]VSCA-NH2; thioether N-14) | 0.03 µM |
| CCNC(=O)[C@H](CCN)NC(=O)[C@@H]1CSCC(=O)N[C@@H]([C@@H](C)O)C(=O)N[C@@H](Cc2cccc(C#N)c2)C(=O)N[C@@H](CC(=O)O)C(=O)N[C@@H](Cc2cccc(C)c2)C(=O)N[C@@H](Cc2cccc(F)c2)C(=O)N[C@@H](Cc2ccc(-c3ccccc3)cc2)C(=O)N[C@@H](Cc2ccc(OCC(=O)O)cc2)C(=O)N(C)[C@@H](C)C(=O)N[C@H](CC(C)C)C(=O)N[C@@H](CCN)C(=O)N[C@@H](CC2CCCCC2)C(=O)N[C@@H](C(C)(C)O)C(=O)N[C@@H](CO)C(=O)N1 [Compound 1842] ({CH2CO}-T[Phe(3-CN)]D[Phe(3-Me)][Phe(3-F)][Bip]Y(Carboxymethyl)[NMeA][dL][Dab][Cha][Val(3-OH)]SC[Dab]-NHEt; thioether N-14) | 0.02 µM |
| CCC(C)[C@@H]1NC(=O)[C@H](Cc2ccc(-c3ccccc3)cc2)NC(=O)[C@H](C(C)C)NC(=O)[C@H](Cc2c[nH]c3ccccc23)NC(=O)[C@H](CC(=O)O)NC(=O)[C@H](Cc2ccc(O)cc2)NC(=O)[C@H](CC(N)=O)NC(=O)CSC[C@@H](C(=O)N[C@@H](CC(N)=O)C(N)=O)NC(=O)[C@H](C(C)O)NC(=O)[C@H](C(C)C)NC(=O)[C@H](CC(C)C)NC(=O)[C@H](CCN)NC(=O)[C@@H](CC(C)C)NC(=O)[C@H](C)N(C)C1=O (stereo partly drawn) [Compound 2069] ({CH2CO}-NYDWV[Bip][Ile(3ξ)][NMeA][dL][Dab]LV[Thr(3ξ)]CN-NH2; thioether N-14) | 0.1 µM |
| COc1cccc(C[C@@H]2NC(=O)[C@H](CC(N)=O)NC(=O)CSC[C@@H](C(=O)N[C@@H](C)C(N)=O)NC(=O)[C@H]([C@@H](C)O)NC(=O)[C@H](C(C)C)NC(=O)[C@H](CC(C)C)NC(=O)[C@H](CCN)NC(=O)[C@@H](CC(C)C)NC(=O)[C@H](C)N(C)C(=O)[C@H](CCCNC(N)=O)NC(=O)[C@H](Cc3ccc(-c4ccccc4)cc3)NC(=O)[C@H](C(C)C)NC(=O)[C@H](Cc3c[nH]c4ccccc34)NC(=O)[C@H](CC(=O)O)NC2=O)c1 [Compound 1313] ({CH2CO}-N[Phe(3-OMe)]DWV[Bip][Cit][NMeA][dL][Dab]LVTCA-NH2; thioether N-14) | 0.04 µM |
| Cc1cccc(C[C@@H]2NC(=O)[C@H](CC(=O)O)NC(=O)[C@H](Cc3ccc(OCC(=O)O)cc3)NC(=O)[C@H](Cc3ccncc3)NC(=O)CSC[C@@H](C(=O)N[C@@H](CCN)C(N)=O)NC(=O)[C@H](CO)NC(=O)[C@H](C(C)(C)O)NC(=O)[C@H](CC3CCCCC3)NC(=O)[C@H](CCN)NC(=O)[C@@H](CC(C)C)NC(=O)[C@H](CCCN)N(C)C(=O)[C@H](Cc3ccc(OCC(=O)O)cc3)NC(=O)[C@H](Cc3ccc(-c4ccccc4)cc3)NC(=O)[C@H](Cc3ccc(OCC(=O)O)cc3)NC2=O)c1 [Compound 1836] ({CH2CO}-[4Pal]Y(Carboxymethyl)D[Phe(3-Me)]Y(Carboxymethyl)[Bip]Y(Carboxymethyl)[NMeOrn][dL][Dab][Cha][Val(3-OH)]SC[Dab]-NH2; thioether N-14) | 0.67 µM |
